Measurements taken from US20240180888A1, “C5AR1 INHIBITORS FOR TREATING […] REACTIONS TO TAXANES” (Dompe' Farmaceutici SPA, priority 2021, published 2024).
“Also recorded” adds a separate entry of the source.

Tests used:
[1] = test system: paclitaxel-induced HSRs in mice; assay: Prevention of paclitaxel-induced HSRs in vivo by C5aR1 inhibition (Example 8); conditions: 30 mg/kg, os; for increment of serum concentration of complement 5b-9 (SC5b-9) / increment of serum concentration of histamine: pre-treatment, paclitaxel-treated mice, ELISA; for paclitaxel-induced increase of plasma extravasation / paclitaxel-induced increase of vascular leakage: DF3966A 3 h, Avacopan 1 h before paclitaxel 20 mg/kg iv in Cremophor EL
Procedure: ) was intravenousely administrated at 20 mg/kg (0.1 mL/Kg) dissolved in Cremophor EL (polyoxyl 35 castor oil, Sigma-Aldrich, cod. 238470). […] Cremophor alone (Cremophor) was used as a control. […] Intracardiac injection was done to obtain blood in tubes and leaving it undisturbed at room temperature. Serum was separated from blood cells 30 minutes later by centrifugation (2000×g for 10 min, at 4° C.). Aliquots were prepared and stored at -20° C. ELISA kit was used to evaluate the following marker: histamine and SC5b-9 (Mybiosource, San Diego, USA Cat.No: MBS9361379, MBS725193).

[2] = test system: RAW 264.7 mouse macrophages; assay: Proteome profiler cytokine release assay in RAW 264.7 macrophages; type: cell-based; conditions: stimulus C5a 10 nM or Paclitaxel 10 nM, 24 h; DF3966A 10 μM, anti C5aR Ab 50 nM, Avacopan 10 μM
Procedure: RAW 264.7 (ATTC TIB-71) mouse macrophages were cultured following manufacturer's instructions using DMEM medium (Euroclone, MI, Italy) supplemented with 10% FBS (non-heat inactivated) (ATCC, USA) at 37° C., in a humidified 95% air-5% CO2 atmosphere and then were seeded at 1*10^4 cells/cm^2.
(§1) After 24 hours, cells were treated with C5a (diluted in medium) (10 nM, R&D, USA), Paclitaxel (diluted in medium) (10 nM, Sigma, USA) in the absence and in the presence of the C5a inhibitor DF3966A (10 μM), and anti C5aR Ab (BioLegend, CA, USA; 50 nM) or Avacopan (10 μM) for 24 hours, then the media was replaced with culture media (5 ml) for 24 h and then collected.
(§2) Conditioned media were centrifugated to remove particulates and assayed immediately. […] The reagents were prepared following manufacturer's protocols (R&D, USA). Briefly, the membranes were incubated with Array Buffer 6 for 1 hour on a rocking platform shaker. The samples were prepared by adding up to 1 ml of Array Buffer 4 in two separated tubes and then 15 microl of reconstituted mouse cytokine detection antibody cocktail (>40 mouse cytokines) to each prepared sample and incubated 1 hour. Then, the Array Buffer 6 was aspirated and replaced with the sample/antibody mixtures and incubated at 4° C. overnight. The following day, membranes were washed 3 times and Streptavidin-HRP (1:2000) was incubated for 30 minutes at room temperature on a rocking platform shaker. The membranes were washed again, and 1 ml of prepared Chemi Reagent mix was placed onto each membrane. Multiple exposure times were acquired using UVITEC digital analyzer (Alliance, Cambridge, UK).
(§3) The positive signals seen in the developed membranes can be identified by placing the transparency overlay template on the array image and aligning it with pairs of reference spots in the three corners of each array (see FIG. 10). […] Pixel densities (average signals of pair of duplicates which represent each cytokine) were analyzed by ImageJ and the average background was subtracted from each spot.
(§4) In details, the profiling of cytokines released (>40 cytokines) from RAW 264.7 and human macrophages challenged with paclitaxel (Sigma-Aldrich; 10 nM) or C5a (R&D Systems, Inc. MN, USA; 10 nM) for 24 h using a proteome profiler assay. […] The experimental assay is explained in example 4.
(§5) For the human macrophages, human XL Cytokine Array kit #Ary022B was used, while for murine macrophages mouse cytokine Array Panel A #Ary006 was used (R&D systems, USA).

[3] = test system: human (THP-1) macrophages; assay: Proteome profiler cytokine release assay in human macrophages; type: cell-based; conditions: human macrophages; stimulus C5a 10 nM or paclitaxel 10 nM, 24 h
Procedure: as §1, §2, §3, §4, §5

SMILES	increment of serum concentration of complement 5b-9 (SC5b-9) [1]	increment of serum concentration of histamine [1]	paclitaxel-induced increase of plasma extravasation [1]	paclitaxel-induced increase of vascular leakage [1]	effect on C5a- and paclitaxel-induced cytokine release [2]	effect on C5a- and paclitaxel-induced cytokine release [3]
Cc1ccc(NC(=O)[C@H]2CCCN(C(=O)c3c(C)cccc3F)[C@H]2c2ccc(NC3CCCC3)cc2)cc1C(F)(F)F [Avacopan, (2R,3S)-2-[4-(Cyclopentylamino)phenyl]-1-(2-fluoro-6-methylbenzoyl)-N-[4-methyl-3-(trifluoromethyl)phenyl]piperidine-3-carboxamide]	significatively reduced	significatively reduced	abolishing	abolishing	inhibited; also recorded: counteracted	effectively counteracted
C[C@H](c1ccc(Nc2nc(C(F)(F)F)cs2)cc1)c1nn[nH]n1 [DF3966A, 5-[(1R)-1-(4-{[4-(trifluoromethyl)-1,3-thiazol-2-yl]amino}phenyl)ethyl]tetrazol-2-ide]	significatively reduced	significatively reduced	abolishing	abolishing	inhibited; also recorded: counteracted	effectively counteracted
